This passage reports EC50 and IC50 results from patent US20150344457A1, “METHODS OF INHIBITING PRMT5” (EPIZYME, INC., priority 2012, published 2015).

One may read the EC50 as the midpoint of the concentration-response curve. A word on the IC50: it is the concentration that gives 50% inhibition.

SMILES strings stand for the structures. Like-named read-outs stand apart in the source and are kept apart here.

Assay [1] relates to Z-138 cells. Description: Z-138 Proliferation Assay (Cell Titer Glo, 5 days). It counts as cell-based. The following applies: Homo sapiens. The source says: Z-138 Proliferation Assay
Z-138 suspension cells were purchased from ATCC (American Type Culture Collection, Manassas, Va.). RPMI/Glutamax medium, penicillin-streptomycin, heat inactivated fetal bovine serum were purchased from Life Technologies, Grand Island, N.Y., USA. V-bottom polypropylene 384-well plates were purchased from Greiner Bio-One, Monroe, N.C., USA. Cell culture 384-well white opaque plates were purchased from Perkin Elmer, Waltham, Mass., USA. Cell-Titer Gb® was purchased from Promega Corporation, Madison, Wis., USA. SpectraMax M5 plate reader was purchased from Molecular Devices LLC, Sunnyvale, Calif., USA.
Z-138 suspension cells were maintained in growth medium (RPMI 1640 supplemented with 10% v/v heat inactivated fetal bovine serum and cultured at 37° C. under 5% CO2. Under assay conditions, cells were incubated in assay medium (RPMI 1640 supplemented with 10% v/v heat inactivated fetal bovine serum and 100 units/mL penicillin-streptomycin) at 37° C. under 5% CO2.
For the assessment of the effect of compounds on the proliferation of the Z-138 cell line, exponentially growing cells were plated in 384-well white opaque plates at a density of 10,000 cells/ml in a final volume of 50 μl of assay medium. A compound source plate was prepared by performing triplicate nine-point 3-fold serial dilutions in DMSO, beginning at 10 mM (final top concentration of compound in the assay was 20 μM and the DMSO was 0.2%). A 100 nL aliquot from the compound stock plate was added to its respective well in the cell plate. […] After addition of compounds, assay plates were incubated for 5 days at 37° C., 5% CO2, relative humidity >90%.
Cell viability was measured by quantitation of ATP present in the cell cultures, adding 35 μl of Cell Titer Glo® reagent to the cell plates. Luminescence was read in the SpectraMax M5 microplate reader. The concentration of compound inhibiting cell viability by 50% was determined using a 4-parametric fit of the normalized dose response curves.
A general note: ATP-based viability assays read luminescence as a measure of living cells.

The test system of assay [2] is Z-138 cells. The assay can be described thus: Z-138 Methylation Assay (In Cell Western for symmetric di-methyl arginine and DNA content). Format: cell-based. The following applies: Homo sapiens. The source says: Z-138 suspension cells were purchased from ATCC (American Type Culture Collection, Manassas, Va.). RPMI/Glutamax medium, penicillin-streptomycin, heat inactivated fetal bovine serum, and D-PBS were purchased from Life Technologies, Grand Island, N.Y., USA. Odyssey blocking buffer, 800CW goat anti-rabbit IgG (H+L) antibody, and Licor Odyssey infrared scanner were purchased from Licor Biosciences, Lincoln, Nebr., USA. Symmetric di-methyl arginine antibody was purchased from EMD Millipore, Billerica, Mass., USA. 16% Paraformaldehyde was purchased from Electron Microscopy Sciences, Hatfield, Pa., USA.
Z-138 suspension cells were maintained in growth medium (RPMI 1640 supplemented with 10% v/v heat inactivated fetal bovine serum and 100 units/mL penicillin-streptomycin) and cultured at 37° C. under 5% CO2.
Cell Treatment, in Cell Western (ICW) for Detection of Symmetric Di-Methyl Arginine and DNA Content.
Z-138 cells were seeded in assay medium at a concentration of 50,000 cells per mL to a 384-well cell culture plate with 50 μL per well. Compound (100 nL) from 384 well source plates was added directly to 384 well cell plate. Plates were incubated at 37° C., 5% CO2 for 96 hours. After four days of incubation, 40 μL of cells from incubated plates were added to poly-D-lysine coated 384 well culture plates (BD Biosciences 356697). Plates were incubated at room temperature for 30 minutes then incubated at 37° C., 5% CO2 for 5 hours. After the incubation, 40 μL per well of 8% paraformaldehyde in PBS (16% paraformaldahyde was diluted to 8% in PBS) was added to each plate and incubated for 30 minutes. Plates were transferred to a Biotek 405 plate washer and washed 5 times with 100 μL per well of wash buffer (1×PBS with 0.1% Triton X-100 (v/v)). Next 30 μL per well of Odyssey blocking buffer were added to each plate and incubated 1 hour at room temperature. Blocking buffer was removed and 20 μL per well of primary antibody was added (symmetric di-methyl arginine diluted 1:100 in Odyssey buffer with 0.1% Tween 20 (v/v)) and plates were incubated overnight (16 hours) at 4° C. Plates were washed 5 times with 100 μL per well of wash buffer. Next 20 μL per well of secondary antibody was added (1:200 800CW goat anti-rabbit IgG (H+L) antibody, 1:1000 DRAQS (Biostatus limited) in Odyssey buffer with 0.1% Tween 20 (v/v)) and incubated for 1 hour at room temperature. The plates were washed 5 times with 100 μL per well wash buffer then 1 time with 100 μL per well of water. Plates were allowed to dry at room temperature then imaged on the Licor Odyssey machine which measures integrated intensity at 700 nm and 800 nm wavelengths. Both 700 and 800 channels were scanned.
First, the ratio for each well was determined by:
Each plate included fourteen control wells of DMSO only treatment (minimum inhibition) as well as fourteen control wells for maximum inhibition treated with 3 μM of a reference compound (Background wells). The average of the ratio values for each control type was calculated and used to determine the percent inhibition for each test well in the plate. Reference compound was serially diluted three-fold in DMSO for a total of nine test concentrations, beginning at 3 μM. Percent inhibition was determined and IC50 curves were generated using triplicate wells per concentration of compound.

The target in a further assay is T1, PRMT5/MEP50 (Homo sapiens, UniProt O14744).
T1 construct: Expressed full-length human Flag-PRMT5/6His-MeP50 protein complex was purified; made in house; host or cells: Spodoptera frugiperda (SF9) insect cells, baculovirus (pDEST8)
Description: PRMT5 Biochemical Assay (PRMT5/MEP50 enzyme assay on peptide substrate, 3H-SAM Flashplate). Conditions: read-out: Biochemical IC50.

The mark [3] stands for this setting: Table A-2, 96 hours, symmetric di-methyl arginine, read-out: ICW EC50.
Setting [4] is: Table A-2, PRMT5/MEP50 4 nM, 3H-SAM 75 nM, peptide 40 nM.

T1 sequence (O14744 with tags, fused parts or gaps): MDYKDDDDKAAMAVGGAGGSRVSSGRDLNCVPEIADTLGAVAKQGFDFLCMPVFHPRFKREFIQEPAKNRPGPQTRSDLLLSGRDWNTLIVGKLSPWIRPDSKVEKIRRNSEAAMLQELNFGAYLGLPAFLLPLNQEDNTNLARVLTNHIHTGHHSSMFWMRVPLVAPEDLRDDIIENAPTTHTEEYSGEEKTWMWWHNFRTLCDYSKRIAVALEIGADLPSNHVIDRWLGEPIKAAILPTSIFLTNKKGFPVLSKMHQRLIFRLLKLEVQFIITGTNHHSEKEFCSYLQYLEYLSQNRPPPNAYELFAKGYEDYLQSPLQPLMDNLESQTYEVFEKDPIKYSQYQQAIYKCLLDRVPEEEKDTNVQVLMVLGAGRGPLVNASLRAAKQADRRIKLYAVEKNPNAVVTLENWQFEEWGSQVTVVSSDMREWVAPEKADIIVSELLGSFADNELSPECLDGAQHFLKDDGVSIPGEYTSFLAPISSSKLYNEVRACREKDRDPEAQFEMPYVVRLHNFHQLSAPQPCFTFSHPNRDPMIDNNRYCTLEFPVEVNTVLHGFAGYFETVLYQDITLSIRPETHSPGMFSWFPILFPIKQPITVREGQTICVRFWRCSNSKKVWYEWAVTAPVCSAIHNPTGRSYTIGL
T1 sequence (Q9BQA1 with tags, fused parts or gaps partner limits assumed): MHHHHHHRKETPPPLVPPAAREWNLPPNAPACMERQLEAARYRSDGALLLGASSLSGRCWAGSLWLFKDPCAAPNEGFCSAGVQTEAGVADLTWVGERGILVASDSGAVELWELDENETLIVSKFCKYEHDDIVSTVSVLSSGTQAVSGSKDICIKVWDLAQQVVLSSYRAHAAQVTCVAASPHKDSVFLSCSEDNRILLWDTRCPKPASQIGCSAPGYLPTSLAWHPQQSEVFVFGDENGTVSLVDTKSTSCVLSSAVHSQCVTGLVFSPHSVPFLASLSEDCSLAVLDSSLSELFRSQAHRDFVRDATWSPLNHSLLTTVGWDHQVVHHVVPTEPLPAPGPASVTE

In the case of `Cn1cncc1C(=O)Nc1cccc(OC[C@H](O)CN2CCc3ccccc3C2)c1` [Compound D259], the 50% effective concentration (EC50) in the assay on Z-138 cells [1] (Table D-2) was in the range of 10 to 40 µM; in the assay on Z-138 cells [2] (Table D-2, read-out: ICW EC50) it was 0.101 to 1 µM.
For `O[C@H](COc1cccc(-c2cccc3cccnc23)c1)CN1CCc2ccccc2C1` [Compound D258] the same measures were over 20 µM and 1 to 10 µM.
`Cn1cnc2ccc(OCC(=O)NCC(O)CN3CCc4ccccc4C3)cc21` (stereo not shown) [Compound A30]: the EC50 in the assay on Z-138 cells [1] (120 h, Table A-2, 5 days, top concentration 20 μM) lay in the range of 10 to 50 µM; in the assay on Z-138 cells [2] (setting [3]), 0.101 to 1 µM.
Consider `Cn1cnc2ccc(-c3cccc(OC[C@@H](O)CN4CCc5ccccc5C4)c3)cc21` [Compound D173], for which the EC50 lay within 1 to 10 µM with Z-138 cells [1] (Table D-2) and 1 to 10 µM with Z-138 cells [2] (Table D-2, read-out: ICW EC50).
Regarding `Cn1cnc2ccc(-c3ccnc(NC[C@@H](O)CN4CCc5ccccc5C4)c3)cc21` [Compound D276], the concentration for a half-maximal effect (EC50) lay in the range of 1 to 10 µM in the assay with Z-138 cells [1] (Table D-2) and 1 to 10 µM in the assay on Z-138 cells [2] (Table D-2, read-out: ICW EC50).
As to `O=C(COc1ccccc1N1CCOCC1)NC[C@@H](O)CN1CCc2ccccc2C1` [Compound A78], the 50% inhibitory concentration (IC50) on PRMT5/MEP50 (setting [4]) was in the range of 0.101 to 1 µM. In addition, the EC50 with Z-138 cells [2] (setting [3]) was 0.101 to 1 µM.
Consider `Cn1cc2ccc(-c3cccc(OCC(O)CN4CCc5ccccc5C4)c3)cc2n1` (stereo not shown) [Compound D114], for which the IC50 on PRMT5/MEP50 (Table D-2) was 0.101 to 1 µM. Further, the EC50 with Z-138 cells [2] (Table D-2, read-out: ICW EC50) is over 20 µM.
For `O=C(NCC(O)CN1Cc2ccccc2C1)c1cccc(NC2CCOCC2)c1` (stereo not shown) [Compound E8.], the IC50 at PRMT5/MEP50 (Table E-2) is 0.101 to 1 µM. The concentration giving a half-maximal response (EC50) in the assay on Z-138 cells [2] (Table E-2, read-out: ICW EC50) lay within 0.101 to 1 µM.
Regarding `COc1cc(Cl)cc(-c2cccc(OCC(O)CN3CCc4ccccc4C3)c2)c1` (stereo not shown) [Compound D110], the IC50 on PRMT5/MEP50 (Table D-2) was 0.101 to 1 µM. Besides, the EC50 in the assay with Z-138 cells [2] (Table D-2, read-out: ICW EC50) is over 20 µM.
As for `O=C(COc1ccccc1)NCC(O)CN1CCc2ccccc2C1` (stereo not shown) [Compound A1], the IC50 on PRMT5/MEP50 (setting [4]) lay in the range of 0.101 to 1 µM. In addition, the EC50 in the assay with Z-138 cells [2] (setting [3]) is 0.101 to 1 µM.
Regarding `Cn1cnc2ccc(NCC(=O)NCC(O)CN3CCc4ccccc4C3)cc21` (stereo not shown) [Compound A69], the IC50 on PRMT5/MEP50 (setting [4]) lay in the range of 0.101 to 1 µM. In addition, the concentration for a half-maximal effect (EC50) with Z-138 cells [2] (setting [3]) was in the range of 1 to 10 µM.
